Data as given in PMC13493820, “Versatile Glycan Probes for Multiplatform Investigation of Glycan Interactions with Proteins, Viruses, and Cells” (Nature Communications, 2026).

Target: T1, rhesus Langerin (Macaca mulatta, UniProt F7HNH2)
T1 construct: gene CD207; array protein; construct only in supplement
Test: glycan microarray
Type: binding
Details: labelled compound (FAA probe, immobilised)

T1 sequence (F7HNH2 1-328): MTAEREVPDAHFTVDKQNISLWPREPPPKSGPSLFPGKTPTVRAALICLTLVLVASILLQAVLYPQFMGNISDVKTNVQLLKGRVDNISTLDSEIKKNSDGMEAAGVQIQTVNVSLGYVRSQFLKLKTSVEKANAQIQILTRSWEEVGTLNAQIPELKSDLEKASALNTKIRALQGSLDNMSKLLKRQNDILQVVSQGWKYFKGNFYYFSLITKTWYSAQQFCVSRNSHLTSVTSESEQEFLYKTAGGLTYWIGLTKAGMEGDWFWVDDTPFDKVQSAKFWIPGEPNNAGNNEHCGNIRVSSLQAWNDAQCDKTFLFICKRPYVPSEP

In the case of `CC(=O)N[C@H]1[C@H](O[C@H]2[C@H](O)[C@@H](NC(C)=O)C(O)O[C@@H]2CO)O[C@H](CO)[C@@H](O[C@@H]2O[C@H](CO[C@H]3O[C@H](CO[C@H]4O[C@H](CO)[C@@H](O)[C@H](O)[C@@H]4O[C@H]4O[C@H](CO)[C@@H](O)[C@H](O)[C@@H]4O)[C@@H](O)[C@H](O[C@H]4O[C@H](CO)[C@@H](O)[C@H](O)[C@@H]4O[C@H]4O[C@H](CO)[C@@H](O)[C@H](O)[C@@H]4O)[C@@H]3O)[C@@H](O)[C@H](O[C@H]3O[C@H](CO)[C@@H](O)[C@H](O)[C@@H]3O[C@H]3O[C@H](CO)[C@@H](O)[C@H](O)[C@@H]3O[C@H]3O[C@H](CO)[C@@H](O)[C@H](O)[C@@H]3O)[C@@H]2O)[C@@H]1O` (stereo partly shown) [Man9GlcNAc2], the glycan microarray is reported as “rhesus Langerin bound almost exclusively to Man9GlcNAc2”.
